In brackets after ≈: the same amount, converted by molar mass.
What was measured:
Format in all cases: physicochemical
[1] = D9 solubility in the liquors at isolation temperature; conditions: 25 °C, organic solvent or mixture, thermodynamic from solid
Protocol: At the end of each experiment, suspensions were equilibrated at the isolation temperature (25 or 5° C.) for at least 18 hours and the solids and liquors separated by centrifugation at the isolation temperature. The Exo/D9/D8 ratio (Exo-D9-THC-naphthoylester impurity/D9-THC-naphthoylester/D8-THC-naphthoylester) was determined in both the isolated solids and the liquors, from which the % Exo-depletion in the isolated solids was calculated. Several solids were also isolated at elevated temperatures to assess the impact of the isolation temperature on Exo-impurity depletion.
In addition, the solubility of D9 in the liquors was determined in most of the explored solvents and used to estimate the yield.

[2] = Visual solubility of Form B
Protocol: Solubility of D9-THC-naphthoylester, Form B (Batch 2) was determined by visual assessment in various solvents at RT and 50° C. Aliquots of solvent were added to 20 mg of solids at room temperature and 25 mg of solids at 50° C. until complete dissolution or until a maximum volume of 1 mL was added.

Gravimetric solubility = conditions: thermodynamic from solid
Protocol: Additional solids or solvents were added to visual solubility samples with vials less than 100 mg/mL to produce slurries at 20 and 50° C. for the subsequent equilibrium solubility assessment. The slurries were stirred at 20 and 50° C. overnight, filtered through 0.2 μm syringe filters and evaporated to dryness under reduced pressure at ambient temperature. Gravimetric solubility was calculated by dividing the dry solids residue mass (mg) by the solvent mass (g). The mg/g solubility values were then converted to mg/mL using solvent density.
The solubility of Group D acetone and DMF solvates were assessed in the corresponding solvents.

SMILES: CCCCCc1cc(OC(=O)c2ccc3ccccc3c2)c2c(c1)OC(C)(C)[C@@H]1CCC(C)=C[C@@H]21 [Form B, (6aR,10aR)-6a,7,8,10a-tetrahydro-6,6,9-trimethyl-3-pentyl-6H-dibenzo[b,d]pyran-1-yl ester]
- solubility ([1]; n-BuOH/MeOH (1:3), batch 5, n-BuOH/MeOH (1:3), seed E/G, heat T 50, isolation T 25, SP 3, 9.4 mL/g): 5.6 mg/mL (≈ 11.9 mM)
- solubility ([1]; n-BuOH/MeOH (1:3), batch 5, n-BuOH/MeOH (1:3), seed G, heat T 60, isolation T 25, SP 9, 10.0 mL/g): 6 mg/mL (≈ 12.8 mM)
- solubility ([1]; p-Xylene/MeOH (1:9), batch 5, p-Xylene/MeOH (1:9), seed G, heat T 25, isolation T 25, SP 7, 40.0 mL/g): 9.8 mg/mL (≈ 20.9 mM)
- solubility ([2]; alcohols, organic solvent or mixture, thermodynamic from solid, read-out: Solubility): < 10 mg/mL
- solubility ([2]; common organic solvents, organic solvent or mixture, thermodynamic from solid, read-out: Solubility): > 100 mg/mL
- solubility ([2]; organic solvent or mixture, thermodynamic from solid, solvent 1,4-Dioxane, RT, read-out: Visual Solubility at RT): > 404 mg/mL
- solubility ([2]; organic solvent or mixture, thermodynamic from solid, solvent 2Me-THF, RT, read-out: Visual Solubility at RT): > 368 mg/mL
- solubility ([2]; organic solvent or mixture, thermodynamic from solid, solvent Acetone/MeOH (1:3), 50° C., read-out: Visual Solubility at 50° C.): 25 to 40 mg/mL (≈ 53.3 to 85.4 mM)
- solubility ([2]; organic solvent or mixture, thermodynamic from solid, solvent Acetone/MeOH (1:3), RT, read-out: Visual Solubility at RT): 10 to 20 mg/mL (≈ 21.3 to 42.7 mM)
- solubility ([2]; organic solvent or mixture, thermodynamic from solid, solvent Acetone, RT, read-out: Visual Solubility at RT): 94 to 376 mg/mL (≈ 201 to 802 mM)
- solubility ([2]; organic solvent or mixture, thermodynamic from solid, solvent BuOH/MeOH (1:3), 50° C., read-out: Visual Solubility at 50° C.): 26 to 51 mg/mL (≈ 55.5 to 109 mM)
- solubility ([2]; organic solvent or mixture, thermodynamic from solid, solvent BuOH/MeOH (1:3), RT, read-out: Visual Solubility at RT): < 10 mg/mL
- solubility ([2]; organic solvent or mixture, thermodynamic from solid, solvent Cyclohexane, RT, read-out: Visual Solubility at RT): 92 to 368 mg/mL (≈ 196 to 785 mM)
- solubility ([2]; organic solvent or mixture, thermodynamic from solid, solvent DCM, RT, read-out: Visual Solubility at RT): > 404 mg/mL
- solubility ([2]; organic solvent or mixture, thermodynamic from solid, solvent DMSO, 50° C., read-out: Visual Solubility at 50° C.): 25 to 50 mg/mL (≈ 53.3 to 107 mM)
- solubility ([2]; organic solvent or mixture, thermodynamic from solid, solvent DMSO, RT, read-out: Visual Solubility at RT): 18 to 46 mg/mL (≈ 38.4 to 98.2 mM)
- solubility ([2]; organic solvent or mixture, thermodynamic from solid, solvent EtOAc, RT, read-out: Visual Solubility at RT): > 372 mg/mL
- solubility ([2]; organic solvent or mixture, thermodynamic from solid, solvent EtOH, 50° C., read-out: Visual Solubility at 50° C.): 25 to 50 mg/mL (≈ 53.3 to 107 mM)
- solubility ([2]; organic solvent or mixture, thermodynamic from solid, solvent EtOH, RT, read-out: Visual Solubility at RT): < 9 mg/mL
- solubility ([2]; organic solvent or mixture, thermodynamic from solid, solvent Heptane, 50° C., read-out: Visual Solubility at 50° C.): 127 to 254 mg/mL (≈ 271 to 542 mM)
- solubility ([2]; organic solvent or mixture, thermodynamic from solid, solvent Heptane, RT, read-out: Visual Solubility at RT): 20 to 51 mg/mL (≈ 42.7 to 109 mM)
- solubility ([2]; organic solvent or mixture, thermodynamic from solid, solvent IPA:water (9:1), 50° C., read-out: Visual Solubility at 50° C.): < 27 mg/mL
- solubility ([2]; organic solvent or mixture, thermodynamic from solid, solvent IPA:water (9:1), RT, read-out: Visual Solubility at RT): < 10 mg/mL
- solubility ([2]; organic solvent or mixture, thermodynamic from solid, solvent IPA, 50° C., read-out: Visual Solubility at 50° C.): 25 to 50 mg/mL (≈ 53.3 to 107 mM)
- solubility ([2]; organic solvent or mixture, thermodynamic from solid, solvent IPA, RT, read-out: Visual Solubility at RT): < 10 mg/mL
- solubility ([2]; organic solvent or mixture, thermodynamic from solid, solvent MIBK, RT, read-out: Visual Solubility at RT): 105 to 420 mg/mL (≈ 224 to 896 mM)
- solubility ([2]; organic solvent or mixture, thermodynamic from solid, solvent MTBE, RT, read-out: Visual Solubility at RT): 93 to 372 mg/mL (≈ 198 to 794 mM)
- solubility ([2]; organic solvent or mixture, thermodynamic from solid, solvent MeCN, 50° C., read-out: Visual Solubility at 50° C.): 25 to 50 mg/mL (≈ 53.3 to 107 mM)
- solubility ([2]; organic solvent or mixture, thermodynamic from solid, solvent MeCN, RT, read-out: Visual Solubility at RT): 9 to 18 mg/mL (≈ 19.2 to 38.4 mM)
- solubility ([2]; organic solvent or mixture, thermodynamic from solid, solvent MeOH, 50° C., read-out: Visual Solubility at 50° C.): < 25 mg/mL
- solubility ([2]; organic solvent or mixture, thermodynamic from solid, solvent MeOH, RT, read-out: Visual Solubility at RT): < 9 mg/mL
- solubility ([2]; organic solvent or mixture, thermodynamic from solid, solvent THF/MeOH (1:1), RT, read-out: Visual Solubility at RT): 98 to 392 mg/mL (≈ 209 to 836 mM)
- solubility ([2]; organic solvent or mixture, thermodynamic from solid, solvent Toluene, RT, read-out: Visual Solubility at RT): > 376 mg/mL
- solubility ([2]; thermodynamic from solid, solvent Water, 50° C., read-out: Visual Solubility at 50° C.): < 24 mg/mL
- solubility ([2]; thermodynamic from solid, solvent Water, RT, read-out: Visual Solubility at RT): < 9 mg/mL
- solubility ([2]; water): poorly soluble
- solubility (Gravimetric solubility; 20 °C, organic solvent or mixture, solvent Acetone/MeOH (1:3), RT, read-out: Gravimetric Solubility at RT): ~9 mg/mL (≈ 19.2 mM)
- solubility (Gravimetric solubility; 20 °C, organic solvent or mixture, solvent BuOH/MeOH (1:3), RT, read-out: Gravimetric Solubility at RT): ~6 mg/mL (≈ 12.8 mM)
- solubility (Gravimetric solubility; 20 °C, organic solvent or mixture, solvent EtOH, RT, read-out: Gravimetric Solubility at RT): ~7 mg/mL (≈ 14.9 mM)
- solubility (Gravimetric solubility; 20 °C, organic solvent or mixture, solvent Heptane, RT, read-out: Gravimetric Solubility at RT): ~33 mg/mL (≈ 70.4 mM)
- solubility (Gravimetric solubility; 20 °C, organic solvent or mixture, solvent IPA:water (9:1), RT, read-out: Gravimetric Solubility at RT): ~3 mg/mL (≈ 6.4 mM)
- solubility (Gravimetric solubility; 20 °C, organic solvent or mixture, solvent IPA, RT, read-out: Gravimetric Solubility at RT): ~7 mg/mL (≈ 14.9 mM)
- solubility (Gravimetric solubility; 20 °C, organic solvent or mixture, solvent MeCN, RT, read-out: Gravimetric Solubility at RT): ~14 mg/mL (≈ 29.9 mM)
- solubility (Gravimetric solubility; 20 °C, organic solvent or mixture, solvent MeOH, RT, read-out: Gravimetric Solubility at RT): ~3 mg/mL (≈ 6.4 mM)
- solubility (Gravimetric solubility; 20 °C, solvent Water, RT, read-out: Gravimetric Solubility at RT): < 1 mg/mL
- solubility (Gravimetric solubility; organic solvent or mixture, solvent Acetone/MeOH (1:3), 50° C., read-out: Gravimetric Solubility at 50° C.): ~41 mg/mL (≈ 87.5 mM)
- solubility (Gravimetric solubility; organic solvent or mixture, solvent BuOH/MeOH (1:3), 50° C., read-out: Gravimetric Solubility at 50° C.): ~24 mg/mL (≈ 51.2 mM)
- solubility (Gravimetric solubility; organic solvent or mixture, solvent EtOH, 50° C., read-out: Gravimetric Solubility at 50° C.): ~29 mg/mL (≈ 61.9 mM)
- solubility (Gravimetric solubility; organic solvent or mixture, solvent IPA:water (9:1), 50° C., read-out: Gravimetric Solubility at 50° C.): ~18 mg/mL (≈ 38.4 mM)
- solubility (Gravimetric solubility; organic solvent or mixture, solvent IPA, 50° C., read-out: Gravimetric Solubility at 50° C.): ~45 mg/mL (≈ 96 mM)
- solubility (Gravimetric solubility; organic solvent or mixture, solvent MeCN, 50° C., read-out: Gravimetric Solubility at 50° C.): ~35 mg/mL (≈ 74.7 mM)
- solubility (Gravimetric solubility; organic solvent or mixture, solvent MeOH, 50° C., read-out: Gravimetric Solubility at 50° C.): ~12 mg/mL (≈ 25.6 mM)
- solubility (Gravimetric solubility; solvent Water, 50° C., read-out: Gravimetric Solubility at 50° C.): < 1 mg/mL

From US12522576B2, “Polymorphs of D9-THC naphthoylester” (priority 2019, dated 2026)
